Experimental data taken from publication PMC6895199, “A new antiviral scaffold for human norovirus identified with computer-aided approaches on the viral polymerase” (Scientific Reports, 2019).

Experiments:
MNV = MNV CPE reduction assay (MTS) in RAW 264.7 cells; format: cell-based, mouse norovirus (MNV-1.CW1); conditions: Norovirus, RAW264.7, in Mus musculus, Table 2, RAW 264.7, range 0.6–100 µM, at least three independent experiments
How it was run: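 MNV-1.CW1-infected RAW 264.7 cells treated at eight concentrations (0.6–100 µM), 2′-C-methylcytidine as positive control. Viability read by MTS/PMS at OD 498 nm after 2 h; %CPE reduction normalised to uninfected and infected untreated cells, EC50 = concentration protecting 50% of cells from virus-induced CPE.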

[1] = Cytotoxicity by the MTS method on uninfected cells; format: cell-based; conditions: mouse, uninfected RAW 264.7 cells, Table 2, at least three independent experiments
Description: Cytotoxicity: The cytotoxicity of the Compounds was evaluated by the MTS method, by exposing uninfected cells to the same concentrations of compounds for 3 days. The %cell viability was calculated as (ODtreated/ODCC) × 100, where ODCC is the OD of uninfected untreated cells and ODtreated are uninfected cells treated with compound. The CC50 was defined as the compound concentration that reduces the number of viable cells by 50%[34].

| SMILES | EC50 (MNV) | CC50 at 3 days [1] |
| --- | --- | --- |
| O=C(NC(=S)Nc1ccc(N2CCN(C(=O)c3cccs3)CC2)cc1)c1sc2ccccc2c1Cl [Compound 48, 3-Chloro-N-((4-(4-(thiophene-2-carbonyl)piperazin-1-yl)phenyl)carbamothioyl)benzo[b]thiophene-2-carboxamide, reference compound] | 58.2 ± 20.7 µM | > 100 µM |
| Cc1ccc(C(=O)NC(=S)Nc2ccc(N3CCN(C(=O)c4cccs4)CC3)cc2)cc1 [Compound 52, 4-Methyl-N-((4-(4-(thiophene-2-carbonyl)piperazin-1-yl)phenyl)carbamothioyl)benzamide] | 45.1 ± 10.8 µM | > 100 µM |
| O=C(NC(=S)Nc1ccc(N2CCN(C(=O)c3nccs3)CC2)cc1)c1sc2ccccc2c1Cl [Compound 56, 3-Chloro-N-((4-(4-(thiazole-2-carbonyl)piperazin-1-yl)phenyl)carbamothioyl)benzo[b]thiophene-2-carboxamide] | 66.1 ± 12.3 µM | > 100 µM |
